{"source": "patent US8198285B2", "about": "“Pyrazine derivatives” (Astrazeneca AB, priority 2010, dated 2012)", "biological_target": "T1, human GSK3β enzyme (Homo sapiens, UniProt P49841)", "T1 construct": "His6 (N); purchased Millipore 14-306; host or cells: baculovirus / Sf21 insect cells", "T1 sequence (P49841 whole entry)": "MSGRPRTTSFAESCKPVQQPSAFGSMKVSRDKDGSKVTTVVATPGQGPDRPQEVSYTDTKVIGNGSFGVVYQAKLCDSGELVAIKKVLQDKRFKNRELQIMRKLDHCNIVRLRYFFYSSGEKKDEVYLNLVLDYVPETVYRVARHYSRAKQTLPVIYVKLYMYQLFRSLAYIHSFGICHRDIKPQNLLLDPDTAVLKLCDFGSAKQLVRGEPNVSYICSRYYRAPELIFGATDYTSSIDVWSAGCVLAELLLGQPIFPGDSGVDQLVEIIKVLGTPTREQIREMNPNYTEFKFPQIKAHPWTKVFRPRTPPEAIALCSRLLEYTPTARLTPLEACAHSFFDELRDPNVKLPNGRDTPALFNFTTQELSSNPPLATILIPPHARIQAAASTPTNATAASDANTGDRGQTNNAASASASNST", "assay": "In vitro GSK3β kinase assay (FRET, Z'-LYTE), Test (a)", "format": "biochemical", "conditions": "read-out: IC50 versus human GSK3β enzyme", "text": "This biochemical assay used a Fluorescence Resonance Energy Transfer (FRET)-based, coupled-enzyme format to determine the ability of test compounds to inhibit substrate phosphorylation by recombinant GSK3β serine/threonine kinase (Kleman-Leyer, K. et al. Drug Disc. Devel. 2003, 6:81-2). The substrate used in this assay was Z′-LYTE™ ser/Thr 9 peptide and the FRET assay kit was obtained from Invitrogen (Paisley, UK, catalogue number PV3324). N-terminal His6-tagged recombinant human GSK313, with an H350 L mutation, was expressed in baculovirus in Sf21 insect cells, purified and obtained from Millipore (Billerica, Mass., USA, catalogue number 14-306 Human).\nTest compounds were prepared as 10 mM stock solutions in dimethylsulphoxide (DMSO) and diluted in DMSO as required. Aliquots (2.5 μl) of compound dilutions were added to the wells of an Optiplate-F PerkinElmer 384-well plate (Massachusetts, USA, catalogue number 6007270). Control wells that produced a maximum signal corresponding to maximum enzyme activity were created by using 100% phosphorylated peptide obtained from Invitrogen (Paisley, UK, catalogue number PV3326). A 5 μl aliquot of 100% phosphorylated peptide (100 μM in 1.33× kinase buffer) was added to all maximum control wells. 2.5 μl of 4% DMSO solution (v/v) in 1.33× kinase buffer was added to maximum control wells. Control wells that produced a minimum signal corresponding to 100% inhibited enzyme were created by adding 2.5 μl of 40 μM Staurosporine in 1.33× kinase buffer containing 4% DMSO (v/v). A 5 μl mixture of GSK3β (100 ng/μl) enzyme and non-phosphorylated substrate (Z-LYTE™ ser/Thr 9 peptide, 100 μM) in a 1.33× kinase buffer solution was added to each well except maximum control wells and the assay plate centrifuged at 270 g for 1 minute. The kinase buffer used 1.33× was obtained from Invitrogen (Paisley, UK, catalogue number PV3189) and contained 67 mM HEPES (pH 7.5), 13 mM MgCl2, 1.3 mM EGTA, 0.01% BRIJ-35. Then 2.5 μl adenosine triphosphate (28 μM) in kinase buffer was added per well, centrifuged at 270 g for 1 minute and then the assay plate was shaken for 1 hour at room temperature. A proprietary development solution was prepared by adding 58 μl of development reagent A (Invitrogen, Paisley, UK, catalogue number PV3297) to 2142 μl of development reagent B (Invitrogen, Paisley, UK, catalogue number P3127). […]\nThe resultant signals arising from laser light excitation at 400 nm were read using a Perkin Elmer Envision spectrophotometer (Perkin Elmer, Massachusetts, USA). […] A ratiometric method, which calculates the ratio (the Emission Ratio) of donor emission to acceptor emission after excitation of the donor fluorophore at 400 nm, quantitates reaction progress, as shown in the equation below. […]", "note": "Counter-ions that a name gives are not always drawn."}
{"smiles": "COCCCNCCCc1ccc(-c2cnc(N)c(C(=O)Nc3cccnc3)n2)cc1", "note": "[Example 1, 3-Amino-6-(4-{3-[(3-methoxypropyl)amino]propyl}phenyl)-N-pyridin-3-ylpyrazine-2-carboxamide tri-hydrochloride]", "values": [{"measurement": "IC50", "result": "~35", "unit": "nM"}]}
